Source: patent US20190224279A1, “PHARMACEUTICAL ASSOCIATION COMPRISING A GROWTH FACTOR RECEPTOR AGONIST CONJUGATED TO A BIOACTIVE CARRIER FOR CONVERTING A NEOPLASTIC CELL INTO A NON-NEOPLASTIC CELL AND USES THEREOF” (HISTIDE AG, priority 2015, published 2019)

How the values were obtained:
[1] = test system: Smad1/5/8 signaling pathway; assay: Growth factor receptor activation: quantification of western blots of phospho-Smad1/5/8; format: cell-based; conditions: human osteosarcoma cells MG63; 400 ng/mL GFR-binding compound; Table 4
Method: After 24 hours of culture, cells were permeabilized (10% SDS, 25 mM NaCl, 10 nM pepstatin and 10 nM leupeptin in distilled water and loading buffer), boiled for 10 minutes and resolved by reducing PAGE (Invitrogen). Proteins were transferred onto nitrocellulose, blocked, and labeled with HRP-conjugated antibodies (Invitrogen). Integrin αv, α5, α3, α4, β1, β, β5 and […] were blotted by treating the nitrocellulose with monoclonal anti-integrin (extracellular domain) αv, α5, α3, α4, β1, β3, β5 and β6 antibodies (Santa Cruz Biotechnology). Phosphor-Smad1/5/8 was blotted by treating the nitrocellulose with monoclonal anti-p-Smad1/5/8 (Santa Cruz Biotechnology). For all of the experiments the western blot was performed in triplicate, along with an additional blot for actin and coomassie blue staining to ensure constant protein load among samples.

[2] = test system: human osteosarcoma cells, MG63; assay: Tumor cell recoding via quantification of pRB (immunofluorescence, ImageJ); format: cell-based
Method: The cells were first fixed for 20 min with 4% paraformaldehyde/PBS at 4° C. After fixation, the cells were permeabilized in PBS containing 1% Triton X-100 for 15 min. Protein immunofluorescent visualization was performed by first treating the cells with 1% (v/v) specific monoclonal antibodies for 1 hour at 37° C. Then the samples were incubated with Alexa Fluor® 568 or 647 (F(ab′)2 fragment of IgG(H+L)) during 30 min at room temperature. The cell nuclei were counterstained in 20 ng/mL DAPI for 10 min at room temperature.
For this type of quantification the freeware image analysis ImageJ® software was used. The raw image was first converted to an 8-bit file, and then the unsharp mask feature was used (settings 1:0.2) to remove the image background (rolling ball radius 10). After smoothing, the resulting image, which appears similar to the original photomicrograph but with minimal background, was then converted to a binary image by setting a threshold. Threshold values were determined empirically by selecting a setting, which gave the most accurate binary image for a subset of randomly selected photomicrographs. The cell area was determined by manual delineation on raw fluorescent images. Total contact area and mean contact area per cell were calculated by “analyse particules” in ImageJ®. A minimum of 50 cells per condition were analyzed.
Neoplastic cells (in this example osteosarcoma cells) were cultured on pharmaceutical associations comprising PET as a bioactive carrier and one of GFR-binding compounds of SEQ ID NO: 11 to 14, 24 to 26 and 51 to 63. A rapid (24 hours) decrease of the tumor markers was observed (FIG. 7). The adhesion checkpoint then activates the tumor suppressor proteins p53 and pRB. […]

| Sequence | p-Smad1/5/8 (%) [1] | pRB (%) ([2]; Table 4) | pRB (%) ([2]; Table 5) |
| --- | --- | --- | --- |
| VPEKMSSLSILFFDENKNVVLKVYPNMAVS (Non-cyclic GFR-binding peptide) [SEQ ID NO: 73] | 44% | 17% | 17% |
| VPQALSPISILFIRLKPHQGHLGEMSNMVVR (Non-cyclic GFR-binding peptide) [SEQ ID NO: 85] | 26% | 24% | 24% |
| VPTHHSAISMLYLELGGDKPLENYQFLQ (Non-cyclic GFR-binding peptide) [SEQ ID NO: 97] | 46% | 9% | 9% |
| VPARLSPISILYIDAANNVVYKQYEDMVKS (Non-cyclic GFR-binding peptide) [SEQ ID NO: 93] | 44% | 8% | 8% |
| RNVQCRPTQLEPLPIVYYEIVRKKPEQLSNTLE (Non-cyclic GFR-binding peptide) [SEQ ID NO: 95] | 29% | 8% | 8% |
| VPTELSPISILFIRIKPHQGHLGEMSAAVVE (Non-cyclic GFR-binding peptide) [SEQ ID NO: 70] | 30% | 24% | 24% |
| NDEGLECVPTEERPVQVRKIRIKPHQGQKKATVFLQHNK [SEQ ID NO: 79] (Non-cyclic GFR-binding peptide) | 27% | 21% | 21% |
| APTQLSAISTLYLEIVRKKPLKNYQEMEDH (Non-cyclic GFR-binding peptide) [SEQ ID NO: 78] | 58% | 20% | 20% |
| TPTKMSPINMLYFNEKNNIIYGKIPGMVVD (Non-cyclic GFR-binding peptide) [SEQ ID NO: 76] | 55% | 15% | 15% |
| VPEKMSSLSILFFDENKNAALKVYPNMTVE (Non-cyclic GFR-binding peptide) [SEQ ID NO: 92] | 52% | 8% | 8% |
| ASASPSSVPQDLEPLTILYYVGRTPKVEQLSNMVEDH (Non-cyclic GFR-binding peptide) [SEQ ID NO: 80] | 34% | 17% | 17% |
| VPARLSPISILYIDAANNVVYKQYEDM (Non-cyclic GFR-binding peptide) [SEQ ID NO: 74] | 51% | 10% | 10% |
| SRVHHNAISTLYFDESSNVILKKYRGMSVVE (Non-cyclic GFR-binding peptide) [SEQ ID NO: 91] | 56% | 9% | 9% |
| APTQLSAISTLYLEIVRKKPLKNYQFLQHNK (Non-cyclic GFR-binding peptide) [SEQ ID NO: 77] | 52% | 14% | 14% |
| VPQALSPINMLYFNEKNQIIYGKIPFLQHNK (Non-cyclic GFR-binding peptide) [SEQ ID NO: 75] | 54% | 8% | 8% |
| VPTKLSPISILYIDDMGVPTYKQYEEGMSVAE (Non-cyclic GFR-binding peptide) [SEQ ID NO: 67] | 40% | 9% | 9% |
| VPTELSPISILFIVGGKPKVYKQYENMVVE (Non-cyclic GFR-binding peptide) [SEQ ID NO: 90] | 36% | 17% | 17% |
| VSQDLSAISTLYLKIVRKEPLKNYQEMVEE (Non-cyclic GFR-binding peptide) [SEQ ID NO: 98] | 39% | 9% | 9% |

| Sequence | p-Smad1/5/8 (%) [1] | pRB (%) ([2]; Table 4) | pRB (%) ([2]; Table 5) |
| --- | --- | --- | --- |
| ASASPSSVPQDLEPLTILYYVGRTPKVEQLSNMV (Non-cyclic GFR-binding peptide) [SEQ ID NO: 65] | 38% | 18% | 18% |
| VPQALNAISTLYFDDSSNVILKKYRNMAVS (Non-cyclic GFR-binding peptide) [SEQ ID NO: 72] | 48% | 11% | 11% |
| VPTKLSAISTLYLDLAREEPLKNYQEMVVE (Non-cyclic GFR-binding peptide) [SEQ ID NO: 87] | 38% | 16% | 16% |
| APTKLEPLTIVYYDDSSNVIEQLSNNMVVR (Non-cyclic GFR-binding peptide) [SEQ ID NO: 88] | 32% | 21% | 21% |
| VPQALSPISILFIVGRKPKVYKQYEMIVERS (Non-cyclic GFR-binding peptide) [SEQ ID NO: 89] | 41% | 18% | 18% |
| VPTEESNITTQIMRIKPHQGQHIGEMSFLQH [SEQ ID NO: 84] (Non-cyclic GFR-binding peptide) | 22% | 10% | 10% |
| RNVQCRPTQLEPLPIVYYEIVRKKPEQLSNTLEDHLA [SEQ ID NO: 81] (Non-cyclic GFR-binding peptide) | 41% | 19% | 19% |
| VPQALSPISILYIDDMGVPTYKQYEEGMSVAE (Non-cyclic GFR-binding peptide) [SEQ ID NO: 68] | 39% | 7% | 7% |
| TPTKMSPINMLYFNEKNNIIYGKIPGM (Non-cyclic GFR-binding peptide) [SEQ ID NO: 94] | 41% | 20% | 20% |
| RNVQCRPTQLEPLPIVYYEIVRKKPEQLSNTLEDHLA [SEQ ID NO: 66] (Non-cyclic GFR-binding peptide) | 38% | 21% | 21% |
| VPARLSPISILYIDEMGVPTYKQYEEGMSVAE (Non-cyclic GFR-binding peptide) [SEQ ID NO: 83] | 33% | 9% | 9% |
| NDEGLECVPTEERPVQVRKIRIKPHQGQKKATVFLQHNK [SEQ ID NO: 64] (Non-cyclic GFR-binding peptide) | 36% | 14% | 14% |
| APTKLEPLPMVYYEERRNVIEQLSNNMVVR (Non-cyclic GFR-binding peptide) [SEQ ID NO: 86] | 34% | 11% | 11% |
| TQVQLEPLTLLYYDENEKVIEQLSNDMVVE (Non-cyclic GFR-binding peptide) [SEQ ID NO: 71] | 47% | 19% | 19% |
| VPTKLSPISILYIDKMGVPTYKQYEEGMSVAE (Non-cyclic GFR-binding peptide) [SEQ ID NO: 82] | 35% | 16% | 16% |
| VPTHHSAISTLYLELAGEKPLKNYQFLQHNK (Non-cyclic GFR-binding peptide) [SEQ ID NO: 96] | 47% | 7% | 7% |
| VPTEESNITTQIMRIKPHQGQHIGEMSFLQH [SEQ ID NO: 69] (Non-cyclic GFR-binding peptide) | 32% | 23% | 23% |
